Experimental data reported in patent publication US20220354811A1, “METHODS AND COMPOSITIONS FOR MODULATING MACROPHAGES POLARIZATION” (INSERM (INSTITUT NATIONAL DE LA SANTÉ ET DE LA RECHERCHE …, priority 2019, published 2022).
Residues, ends and D or L forms follow the SMILES beside them. *: point of attachment. Cbz = O=C(OCc1ccccc1)*; CH2F = FC*

How the values were obtained:
caspase-8 = caspase-8 (Homo sapiens, UniProt Q14790); assay: Recombinant caspase-8 activity in vitro (Ac-IETD-AMC substrate); type: biochemical; set-up: using active recombinant proteins of caspase-8 and caspase-3; purchased Enzo life sciences ALX-201-062; details: recombinant caspase-8, Ac-IETD-AMC
Source text: FIG. 4. […] (A) Measures of caspase-8 activity (IETD-AMC). IETD-CHO treatment is used as positive control in the in vitro assay. The results are expressed as A.U./min and represent the mean of 3 independent experiments realized in duplicate (B) Measures of caspase-3 activity (DEVD-AMC). DEVD-CHO is used as positive control in the in vitro assay. The results are expressed as A.U./min and represent the mean of 3 independent experiments realized in duplicate. Human CSF-1 was purchased from Miltenyi (130-096-493). […] Mouse caspase-8 was from R&D Systems (AF705). HRP-conjugated rabbit anti-goat was purchased from Dako ([…]) and HRP-conjugated goat anti-rabbit was from Cell Signaling (5127). Active recombinant caspase-8 (ALX-201-062) and -3 (ALX-201-059) were from Enzo life sciences. […] Each assay (in triplicate) was performed with 10 μg of protein prepared from control or stimulated cells. […] Enzyme activities were expressed in arbitrary units (A.U.) per min and per mg of proteins. The same protocol was used with 0.25 units of active recombinant caspase-8 (Enzo, ALX-201-062) or -3 (Enzo, ALX-201-059) in each triplicate.

human primary monocytes = details: literature (Jacquel et al., Blood 2009, Sci Reports 2018); cited from earlier work

Sequence of caspase-8 (Q14790 217-374 limits assumed): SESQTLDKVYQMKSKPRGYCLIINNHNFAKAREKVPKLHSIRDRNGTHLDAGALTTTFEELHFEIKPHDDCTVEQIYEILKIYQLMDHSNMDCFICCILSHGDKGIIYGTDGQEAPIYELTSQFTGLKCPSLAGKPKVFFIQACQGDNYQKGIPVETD
Sequence of caspase-8 (Q14790 385-479 limits assumed): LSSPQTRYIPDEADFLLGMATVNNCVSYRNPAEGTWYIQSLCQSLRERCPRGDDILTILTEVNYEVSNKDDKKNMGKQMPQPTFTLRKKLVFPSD

| SMILES | IC50 (caspase-8) [nM] | effect on CSF-1-induced monocyte differentiation (human primary monocytes) |
| --- | --- | --- |
| CC[C@H](C)[C@H](NC(C)=O)C(=O)N[C@@H](CCC(=O)O)C(=O)N[C@H](C(=O)N[C@H](C=O)CC(=O)O)[C@@H](C)O [Ac-IETD-CHO] (Ac-IETD-aldehyde) | 15 | – |
| COC(=O)C[C@H](NC(=O)[C@H](C)NC(=O)[C@@H](NC(=O)OCc1ccccc1)C(C)C)C(=O)CF [z-VAD-fmk] (Cbz-Val-Ala-Asp(OMe)-CH2F) | – | inhibits |
